What was measured:
LXRα = molecular target: T1, LXRα (Homo sapiens, UniProt Q13133); experiment: ChIP, LXRα binding to the LXRE in the α-synuclein promoter; type: cell-based; conditions: SH-SY5Y; for LXRα binding to the LXRE on the α-synuclein promoter: treatment alone vs control
T1 construct: endogenous in cells; host or cells: SH-SY5Y human neuroblastoma cells
T1 sequence (Q13133 1-447): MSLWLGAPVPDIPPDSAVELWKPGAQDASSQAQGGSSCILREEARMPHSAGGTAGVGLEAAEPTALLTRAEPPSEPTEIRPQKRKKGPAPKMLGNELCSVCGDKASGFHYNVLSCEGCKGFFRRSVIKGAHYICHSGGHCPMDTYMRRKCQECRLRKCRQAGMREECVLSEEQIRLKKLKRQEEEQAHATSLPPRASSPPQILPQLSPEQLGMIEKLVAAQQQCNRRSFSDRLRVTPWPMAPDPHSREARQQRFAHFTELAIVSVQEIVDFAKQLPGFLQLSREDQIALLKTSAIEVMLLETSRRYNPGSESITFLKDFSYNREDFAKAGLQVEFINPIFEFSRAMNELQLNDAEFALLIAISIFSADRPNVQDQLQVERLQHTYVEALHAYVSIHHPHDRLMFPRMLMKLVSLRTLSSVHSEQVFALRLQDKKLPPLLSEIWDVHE
Protocol: (§1) Human neuroblastoma SH-SY5Y cells were grown in DMEM/F12 medium containing 10% fetal bovine serum (FBS) and 1% antibiotic/antimycotic mix. Cells were maintained at 37° C. in a saturated humidity atmosphere containing 95% air and 5% CO2.
(§2) ChIP analysis was performed to evaluate the extent of ERα/ERβ and LXRα/LXRβ binding to the DNA elements in the TH promoter and α-synuclein promoter regions respectively using “SimpleChIP™ Enzymatic Chromatic IP kit” from Cell Signaling (Boston, Mass.).
(§3) Briefly, cells from each treatment group (3×10^6 cells) were washed with PBS, trypsinized, centrifuged at 5000 g. The pellet containing the cells was further washed with PBS and cross-linked using 37% formaldehyde for 15 min followed by the addition of glycine solution to cease the cross-linking reaction.
(§4) The cells were washed with 4× volumes of 1×PBS and centrifuged at ˜220 g for 5 min. The pellet was resuspended and incubated for 10 min in 5 ml of tissue lysis buffer containing DTT and protease and phosphatase inhibitors. The subsequent steps to isolate the cross-linked chromatin were performed according to the manufacturer's protocol.
The cross-linked chromatin from each sample was apportioned into four equal parts. One quarter of the cross-linked chromatin was set aside as “input.” One quarter of the cross-linked chromatin from each sample was incubated with 5 μg of anti-ERα mouse antibody (Cell Signaling, Boston, Mass.) and 5 μg of anti-ERβ rabbit antibody (Upstate, Bedford, Mass.), or 5 μg of anti-LXRα rabbit antibody (Abcam, Cambridge, Mass.) and 5 μg of anti-LXRβ mouse antibody (Abcam, Cambridge, Mass.), while the remaining one quarter of the cross-linked chromatin from each sample was incubated with 5 μg of normal Rabbit IgG to serve as negative control. […]
The crude DNA extract was eluted and then washed several times with wash buffer containing ethanol (provided with the kit) followed by purification with the use of DNA spin columns provided by the manufacturer. […] The DNA fragment size was determined by electrophoresis on a 1.2% agarose FlashGel^R system (Lonza, Rockland, Me.).
The relative abundance of the ERα or ERβ antibody precipitated chromatin containing the ERE in the TH promoter region and LXRα or LXRβ antibody precipitated chromatin containing the LXRE in the α-synuclein promoter region was determined by qPCR using an iQ SYBR Green Supermix kit following the manufacturer's instructions (BioRad, Hercules, Calif.) and sequence specific primers (See Table 1 above). […] The fold enrichment of the ERE in the TH promoter region and LXRE in the α-synuclein promoter region was calculated using the ΔΔCt method (K. J. Livak et al., Methods, 25, 402 (2001)) which normalizes ChIP Ct values of each sample to the % input and background.

ARPE-19 cells = experiment: ROS levels in ARPE-19 cells; type: cell-based; conditions: ARPE-19, 24 h
TNF-α = TNF-α levels in ARPE-19 cells; type: cell-based; conditions: ARPE-19, 24 h, 10 μM, alone vs control
ERα [1] = molecular target: T2, ERα (Homo sapiens, UniProt P03372); experiment: Western blot of ERα levels in the nucleus (nuclear translocation), SH-SY5Y cells; type: cell-based; conditions: 24 h, treatment alone vs control
T2 construct: endogenous in cells; host or cells: SH-SY5Y human neuroblastoma cells
T2 sequence (P03372 1-595): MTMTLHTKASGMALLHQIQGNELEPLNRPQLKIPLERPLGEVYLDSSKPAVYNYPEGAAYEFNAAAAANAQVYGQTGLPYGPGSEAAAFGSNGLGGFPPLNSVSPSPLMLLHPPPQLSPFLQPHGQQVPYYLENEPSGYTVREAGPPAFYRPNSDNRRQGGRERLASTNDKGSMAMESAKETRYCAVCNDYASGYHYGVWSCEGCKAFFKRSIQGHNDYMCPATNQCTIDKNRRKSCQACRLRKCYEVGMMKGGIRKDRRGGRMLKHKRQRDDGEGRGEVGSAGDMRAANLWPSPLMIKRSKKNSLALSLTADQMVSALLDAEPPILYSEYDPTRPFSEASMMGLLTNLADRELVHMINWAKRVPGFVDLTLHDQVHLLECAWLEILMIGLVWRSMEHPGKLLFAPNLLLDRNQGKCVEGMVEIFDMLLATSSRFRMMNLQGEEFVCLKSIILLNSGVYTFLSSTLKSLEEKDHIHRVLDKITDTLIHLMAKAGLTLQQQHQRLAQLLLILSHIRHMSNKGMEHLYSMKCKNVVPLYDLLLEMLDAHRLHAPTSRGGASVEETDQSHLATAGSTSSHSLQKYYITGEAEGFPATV
Protocol: as §1

ERα [2] = molecular target: T2, ERα; experiment: ChIP, ERα binding to the ERE half site in the TH promoter; type: cell-based; conditions: SH-SY5Y, treatment alone vs control
Protocol: as §1, §2, §3, §4
The cross-linked chromatin from each sample was apportioned into four equal parts.

ERα/β = experiment: EMSA, binding of nuclear ER to probe for the ERE half site in the TH promoter; type: cell-based, human; conditions: nuclear extracts of treated SH-SY5Y, treatment alone vs control
LXRα/β = experiment: EMSA, binding of LXRα/β to probe for the LXRE in the α-synuclein promoter; type: cell-based, human; conditions: for binding of LXRα/β to the exogenous DNA sequence containing the LXRE: nuclear extracts of treated SH-SY5Y, treatment alone vs control

Row | LXRα binding to the LXRE on the α-synuclein promoter (LXRα) | 27-OHC-induced increase in LXRα/β binding to the LXRE consensus motif (LXRα/β; co-treatment with 27-OHC) | LXRα binding to the LXRE in the α-synuclein promoter (LXRα; in combination with 27-OHC) | Compound | reactive oxygen species (ROS) levels (ARPE-19 cells; 10 μM, alone vs control) | TNF-α levels (TNF-α) | nuclear translocation / nuclear levels of ERα (ERα [1]) | ERα binding to the ERE on the TH promoter (ERα [2]) | binding of nuclear ER to the DNA probe corresponding to the ERE-half site on the TH promoter (ERα/β) | binding of LXRα/β to the exogenous DNA sequence containing the LXRE (LXRα/β) | 27-OHC-induced increase in ROS levels (ARPE-19 cells; co-treatment with 27-OHC, all at 10 μM)
1 | did not significantly attenuate | mitigates | – | CC(C)CCC[C@@H](C)[C@H]1CC[C@H]2[C@@H]3C[C@@H]4O[C@@]45C[C@@H](OS(=O)(=O)O)CC[C@]5(C)[C@H]3CC[C@]12C [ECHS, 5α,6α-epoxycholesterol-3-sulfate] | – | – | – | – | – | decreased | reduced
2 | did not elicit any increase | – | did not elicit any increase | Cl.O=C(O)Cc1cccc(OCCCN(Cc2cccc(C(F)(F)F)c2Cl)CC(c2ccccc2)c2ccccc2)c1 [GW3965, 3-[3-[N-(2-Chloro-3-trifluoromethylbenzyl)-(2,2-diphenylethyl)amino]propyloxy]phenylacetic acid hydrochloride] | – | – | – | – | – | – | –

Row | Compound | LXRα binding to the LXRE on the α-synuclein promoter (LXRα) | 27-OHC-induced increase in LXRα/β binding to the LXRE consensus motif (LXRα/β; co-treatment with 27-OHC) | LXRα binding to the LXRE in the α-synuclein promoter (LXRα; in combination with 27-OHC) | reactive oxygen species (ROS) levels (ARPE-19 cells; 10 μM, alone vs control) | TNF-α levels (TNF-α) | nuclear translocation / nuclear levels of ERα (ERα [1]) | ERα binding to the ERE on the TH promoter (ERα [2]) | binding of nuclear ER to the DNA probe corresponding to the ERE-half site on the TH promoter (ERα/β) | binding of LXRα/β to the exogenous DNA sequence containing the LXRE (LXRα/β) | 27-OHC-induced increase in ROS levels (ARPE-19 cells; co-treatment with 27-OHC, all at 10 μM)
3 | C[C@@H](CO)CCC[C@@H](C)[C@H]1CC[C@H]2[C@@H]3CC=C4C[C@@H](O)CC[C@]4(C)[C@H]3CC[C@]12C [27-OHC, 27-hydroxycholesterol] | no significant augmentation | – | – | increases | increases | decrease | no significant attenuation | lower binding | increases | –

Reference: patent US20150031655A1, “COMBINATION OF LIVER X RECEPTOR MODULATOR AND ESTROGEN RECEPTOR MODULATOR FOR THE TREATMENT OF AGE-RELATED DISEASES” (UNIVERSITY OF NORTH DAKOTA, priority 2011, published 2015)
